Columns and labels:
CDK9/cyclinT1 = biological target: T1, CDK9/cyclinT1 (Homo sapiens, UniProt P50750); test: CDK9/cyclinT1 kinase assay, IMAP fluorescence polarization; format: biochemical
T1 construct: purchased Millipore
In short: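 Recombinant purified enzyme complexes assayed by IMAP fluorescence polarization with 1% final DMSO, 2 h at room temperature; stopped with 1× Developer buffer (85% A/15% B) plus IMAP beads 1/400, then 1 h further at room temperature. IC50 from normalized mP versus log compound concentration.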

CDK1/cyclinB = biological target: T2, CDK1/cyclinB (Homo sapiens, UniProt P06493); test: CDK1/cyclinB kinase assay, IMAP fluorescence polarization; format: biochemical; conditions: read-out: CDK1 IC50
T2 construct: purchased Millipore
In short: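 IMAP fluorescence polarization assay on recombinant purified enzyme, compounds at final 1% DMSO. Reaction run 2 h at room temperature, stopped, held 1 h more before reading polarization.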

CDK2/cyclinA = biological target: T3, CDK2/cyclinA (Homo sapiens, UniProt P24941); test: CDK2/cyclinA kinase assay, IMAP fluorescence polarization; format: biochemical
T3 construct: purchased Millipore
In short: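 Recombinant purified enzyme reactions run 2 hours at room temperature with 1% DMSO final. Stopped with 1× Developer buffer (100% A) and IMAP beads 1/400, then 1 hour more before fluorescence polarization read. IC50 from mP values versus log concentration.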

CDK7/cyclinH/MAT1 = biological target: T4, CDK7/cyclinH/MAT1 (Homo sapiens, UniProt P50613); test: CDK7/cyclinH/Mat1 kinase assay, IMAP fluorescence polarization; format: biochemical
T4 construct: purchased Millipore
Method: Kinase assays were performed on recombinant purified enzymes using the non-radioactive IMAP fluorescence polarization assay format.
Compound stocks were prepared and diluted in DMSO and were added to kinase reactions at a 1/100 dilution for a final concentration of 1% DMSO. The components were added together to final concentrations listed in the tables below and incubated for two hours at room temperature.
The reactions were stopped by addition of stop solution.
CDK9/CDK1/CDK7: final stop concentration is 1× Developer buffer (85% A/15% B), IMAP beads 1/400
The samples were allowed to incubate for one more hour at room temperature and then the fluorescence polarization was measured. The plate normalized millipolarization (mP) values were plotted against the log of compound concentration for each compound and IC50 values were calculated using the spotfire IC50 calculator and confirmed by visual analysis.

[1] = tested on: RNA Polymerase II CTD Serine2 Phosphorylation; test: H5 (Ser2) Ab High Content Screen: RNA Polymerase II CTD Serine2 Phosphorylation Assay in Hep3B cells; format: cell-based; conditions: Homo sapiens, 2 hours with compound, H5 antibody staining
Method: H5 (also referred as Ser2) Ab High Content Screen: RNA Polymerase II CTD Serine2 Phosphorylation Assay
1. Cells are plated into 384 well plates: 30 μl of Hep3B cells (4,000 cells/30 μl) in DMEM with 3% FBS are plated into wells of a tissue culture treated clear bottomed 384 well plate. Cells are allowed to adhere during an overnight incubation.
2. Cells are treated with compounds for two hours: 10 μl of DMEM with 3% FBS is added to each well with a final concentration of DMSO equal to 1%. Cells are incubated with compounds for 2 hours.
3. Cells are fixed and permeabilized. Cells are washed with 30 mM HEPES pH=7.3 then fixed in 4% paraformaldehyde in 30 mM HEPES pH=7.3 for one hour at room temperature. The fix is removed by washing the cells with Tris buffered saline (TBS) and the cells are permeabilized by incubation in TBS with 0.5% triton X-100 for 30 minutes at room temperature. Triton is removed by washing the cells with TBS.
4. […] Incubate primary H5 Ab (1/250 ) overnight at 4 degrees in TBS with 1% BSA and 0.1% Tween-20. The next day wash cells with TBS. […] Wash cells with PBS.
5. Measure staining using the In-cell Analyzer system from GE Healthcare.

CDK4 = CDK4 (Homo sapiens, UniProt P11802); test: CDK4 kinase assay (Table F); format: biochemical
CDK5 = CDK5 (Homo sapiens, UniProt Q00535); test: CDK5 kinase assay (Table F); format: biochemical
Sequence of CDK5 (Q00535 whole entry, species assumed): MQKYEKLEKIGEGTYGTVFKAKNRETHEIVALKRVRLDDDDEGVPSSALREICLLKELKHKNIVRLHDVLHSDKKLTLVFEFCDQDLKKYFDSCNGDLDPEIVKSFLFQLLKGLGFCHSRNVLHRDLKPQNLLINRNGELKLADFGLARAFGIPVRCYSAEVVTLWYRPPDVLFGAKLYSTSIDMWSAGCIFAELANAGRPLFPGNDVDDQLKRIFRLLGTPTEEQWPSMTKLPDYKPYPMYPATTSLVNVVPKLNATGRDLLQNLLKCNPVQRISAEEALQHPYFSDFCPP
Sequence of CDK5 (Q15078 whole entry partner, species assumed): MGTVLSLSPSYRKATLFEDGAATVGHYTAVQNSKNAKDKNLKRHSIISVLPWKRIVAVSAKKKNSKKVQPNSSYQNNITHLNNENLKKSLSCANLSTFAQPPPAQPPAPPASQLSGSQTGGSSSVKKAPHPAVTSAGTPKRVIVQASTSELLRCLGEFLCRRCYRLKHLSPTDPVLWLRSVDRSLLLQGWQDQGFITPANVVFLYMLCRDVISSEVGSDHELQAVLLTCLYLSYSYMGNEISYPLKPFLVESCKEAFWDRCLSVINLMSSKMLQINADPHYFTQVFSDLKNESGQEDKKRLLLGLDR

Sequence of CDK4 (P11802 whole entry, species assumed): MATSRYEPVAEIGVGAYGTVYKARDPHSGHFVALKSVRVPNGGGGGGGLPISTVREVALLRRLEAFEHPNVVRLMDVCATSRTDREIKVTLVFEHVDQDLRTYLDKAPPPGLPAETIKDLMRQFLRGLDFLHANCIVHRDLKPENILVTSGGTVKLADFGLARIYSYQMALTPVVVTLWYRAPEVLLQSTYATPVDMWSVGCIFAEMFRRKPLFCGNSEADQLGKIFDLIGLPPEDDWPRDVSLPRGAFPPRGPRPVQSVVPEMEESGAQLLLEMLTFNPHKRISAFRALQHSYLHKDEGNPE
Sequence of CDK4 (P24385 whole entry partner, species assumed): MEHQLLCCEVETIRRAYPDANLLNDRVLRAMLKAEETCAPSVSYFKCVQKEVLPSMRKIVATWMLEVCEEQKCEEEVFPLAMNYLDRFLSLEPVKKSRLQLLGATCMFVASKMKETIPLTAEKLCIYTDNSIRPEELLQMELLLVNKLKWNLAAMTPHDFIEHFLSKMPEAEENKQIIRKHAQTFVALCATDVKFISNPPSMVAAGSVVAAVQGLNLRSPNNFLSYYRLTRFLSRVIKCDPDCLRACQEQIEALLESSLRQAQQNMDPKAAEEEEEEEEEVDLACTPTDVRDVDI
T1 sequence (P50750 whole entry): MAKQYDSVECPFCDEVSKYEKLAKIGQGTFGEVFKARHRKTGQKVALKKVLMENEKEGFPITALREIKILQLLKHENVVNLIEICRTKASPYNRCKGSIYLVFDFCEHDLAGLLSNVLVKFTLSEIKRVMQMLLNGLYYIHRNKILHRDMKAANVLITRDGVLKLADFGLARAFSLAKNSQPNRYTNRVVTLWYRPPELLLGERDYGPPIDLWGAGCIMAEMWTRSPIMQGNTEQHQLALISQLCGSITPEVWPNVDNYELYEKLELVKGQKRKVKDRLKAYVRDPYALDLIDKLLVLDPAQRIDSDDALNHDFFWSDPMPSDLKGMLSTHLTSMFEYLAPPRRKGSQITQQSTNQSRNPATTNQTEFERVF
T1 sequence (O60563 whole entry partner): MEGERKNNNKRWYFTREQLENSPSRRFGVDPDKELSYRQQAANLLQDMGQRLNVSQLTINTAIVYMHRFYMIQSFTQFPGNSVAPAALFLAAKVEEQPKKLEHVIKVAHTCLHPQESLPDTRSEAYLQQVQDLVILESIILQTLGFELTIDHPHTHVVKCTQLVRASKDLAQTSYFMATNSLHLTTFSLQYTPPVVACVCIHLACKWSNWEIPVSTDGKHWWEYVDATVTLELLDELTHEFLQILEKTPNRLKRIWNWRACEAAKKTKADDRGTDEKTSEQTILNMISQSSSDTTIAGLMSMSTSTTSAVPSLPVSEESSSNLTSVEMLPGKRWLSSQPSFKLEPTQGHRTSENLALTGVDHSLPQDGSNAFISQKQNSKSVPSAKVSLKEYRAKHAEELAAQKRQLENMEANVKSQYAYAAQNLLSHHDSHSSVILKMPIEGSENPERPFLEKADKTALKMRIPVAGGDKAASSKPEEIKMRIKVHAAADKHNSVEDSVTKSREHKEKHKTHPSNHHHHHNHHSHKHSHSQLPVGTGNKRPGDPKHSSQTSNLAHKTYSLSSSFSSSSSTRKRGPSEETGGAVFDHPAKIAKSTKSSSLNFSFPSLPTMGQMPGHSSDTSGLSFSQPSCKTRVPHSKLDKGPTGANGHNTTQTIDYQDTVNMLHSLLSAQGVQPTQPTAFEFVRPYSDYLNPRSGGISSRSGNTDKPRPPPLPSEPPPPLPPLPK
T4 sequence (P50613 whole entry): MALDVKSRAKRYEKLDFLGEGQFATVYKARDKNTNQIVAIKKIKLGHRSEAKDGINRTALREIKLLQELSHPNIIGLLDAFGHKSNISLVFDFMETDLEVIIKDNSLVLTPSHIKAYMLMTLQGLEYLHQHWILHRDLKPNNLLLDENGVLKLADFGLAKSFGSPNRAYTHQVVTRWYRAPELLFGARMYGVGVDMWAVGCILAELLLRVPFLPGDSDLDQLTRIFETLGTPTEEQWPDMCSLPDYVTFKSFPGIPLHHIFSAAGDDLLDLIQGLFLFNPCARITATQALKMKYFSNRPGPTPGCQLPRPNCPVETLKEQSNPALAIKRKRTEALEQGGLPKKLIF
T4 sequence (P51946 whole entry partner): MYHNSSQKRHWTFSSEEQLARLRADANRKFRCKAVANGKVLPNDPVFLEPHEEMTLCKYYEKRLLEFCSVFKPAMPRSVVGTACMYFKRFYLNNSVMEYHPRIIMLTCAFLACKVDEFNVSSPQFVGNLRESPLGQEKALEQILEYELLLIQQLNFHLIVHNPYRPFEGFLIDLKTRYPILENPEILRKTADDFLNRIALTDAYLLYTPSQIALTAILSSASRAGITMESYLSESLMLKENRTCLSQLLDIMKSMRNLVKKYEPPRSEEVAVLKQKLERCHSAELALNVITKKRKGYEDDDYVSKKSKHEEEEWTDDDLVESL
T4 sequence (P51948 whole entry partner): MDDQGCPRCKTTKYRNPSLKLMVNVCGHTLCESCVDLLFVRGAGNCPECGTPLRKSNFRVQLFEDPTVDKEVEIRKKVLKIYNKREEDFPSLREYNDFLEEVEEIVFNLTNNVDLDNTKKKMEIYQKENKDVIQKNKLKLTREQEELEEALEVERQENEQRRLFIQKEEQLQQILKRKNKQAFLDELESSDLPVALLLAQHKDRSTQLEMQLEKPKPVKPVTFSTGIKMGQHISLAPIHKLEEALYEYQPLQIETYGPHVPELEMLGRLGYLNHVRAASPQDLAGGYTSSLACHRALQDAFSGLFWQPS
T2 sequence (P06493 whole entry): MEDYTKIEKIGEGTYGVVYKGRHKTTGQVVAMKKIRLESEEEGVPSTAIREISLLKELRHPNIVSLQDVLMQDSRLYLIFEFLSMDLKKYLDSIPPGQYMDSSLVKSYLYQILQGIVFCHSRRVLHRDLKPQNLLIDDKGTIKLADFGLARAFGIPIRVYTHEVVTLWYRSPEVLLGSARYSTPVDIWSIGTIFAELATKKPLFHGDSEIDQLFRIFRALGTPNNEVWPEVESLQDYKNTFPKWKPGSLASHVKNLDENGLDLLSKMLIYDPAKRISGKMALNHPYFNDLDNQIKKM
T2 sequence (P14635 whole entry partner): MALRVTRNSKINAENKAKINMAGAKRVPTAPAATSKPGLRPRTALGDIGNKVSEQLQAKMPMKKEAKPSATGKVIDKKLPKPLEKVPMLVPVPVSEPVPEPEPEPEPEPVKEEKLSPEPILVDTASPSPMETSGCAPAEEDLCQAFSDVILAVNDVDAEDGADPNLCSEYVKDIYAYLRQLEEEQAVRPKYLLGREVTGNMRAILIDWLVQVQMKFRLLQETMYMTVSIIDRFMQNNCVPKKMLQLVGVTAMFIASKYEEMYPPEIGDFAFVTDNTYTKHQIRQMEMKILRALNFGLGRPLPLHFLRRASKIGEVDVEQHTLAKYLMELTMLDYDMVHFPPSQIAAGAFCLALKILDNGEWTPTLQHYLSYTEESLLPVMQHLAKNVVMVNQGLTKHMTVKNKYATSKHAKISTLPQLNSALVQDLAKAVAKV

CC(=O)NCCCNc1nccc(-c2ccnc(Nc3cccc([N+](=O)[O-])c3)n2)c1C [Compound 25, N-(3-{3-Methyl-4-[2-(3-nitro-phenylamino)-pyrimidin-4-yl]-pyridin-2-ylamino}-propyl)-acetamide] was tested, and the IC50 (CDK9/cyclinT1) was under 5 µM, the IC50 (CDK1/cyclinB) was under 5 µM and the IC50 (CDK2/cyclinA) was under 5 µM. It also gave an IC50 (CDK7/cyclinH/MAT1) of under 5 µM, an IC50 [1] of under 5 µM and an IC50 (CDK4) of 5 to 15 µM. For the same molecule, the IC50 (CDK5) was under 5 µM.
NCCCNc1ncccc1-c1ccnc(Nc2cccc(S(N)(=O)=O)c2)n1 [Compound 59, 3-{4-[2-(3-Amino-propylamino)-pyridin-3-yl]-pyrimidin-2-ylamino}-benzenesulfonamide] showed an IC50 (CDK9/cyclinT1) of under 5 µM, an IC50 (CDK1/cyclinB) of under 5 µM and an IC50 (CDK2/cyclinA) of under 5 µM. The IC50 [1] was 15 to 50 µM, the IC50 (CDK4) was 5 to 15 µM and the IC50 (CDK5) was under 5 µM.
COc1ncccc1-c1ccnc(Nc2cccc(C#N)c2)n1 [Compound 91, 3-[4-(2-Methoxy-pyridin-3-yl)-pyrimidin-2-ylamino]-benzonitrile] gave an IC50 (CDK9/cyclinT1) of under 5 µM, an IC50 (CDK1/cyclinB) of under 5 µM and an IC50 (CDK2/cyclinA) of under 5 µM. It also gave an IC50 (CDK7/cyclinH/MAT1) of over 50 µM, an IC50 [1] of over 50 µM and an IC50 (CDK4) of 15 to 50 µM. The IC50 (CDK5) was under 5 µM.
CC(C)(CN)CNc1ncccc1-c1ccnc(Nc2cccc(Cl)c2)n1 [Compound 61, N-{3-[2-(3-Chloro-phenylamino)-pyrimidin-4-yl]-pyridin-2-yl}-2,2-dimethyl-propane-1,3-diamine] was tested, and the IC50 (CDK9/cyclinT1) was under 5 µM, the IC50 (CDK1/cyclinB) was under 5 µM and the IC50 (CDK2/cyclinA) was under 5 µM. For the same molecule, the IC50 (CDK7/cyclinH/MAT1) was under 5 µM, the IC50 [1] was under 5 µM and the IC50 (CDK4) was under 5 µM. For the same molecule, the IC50 (CDK5) was 15 to 50 µM.
With CS(=O)(=O)NCCCNc1ncccc1-c1ccnc(Nc2cccc(Cl)c2)n1 [Compound 72, N-(3-{3-[2-(3-Chloro-phenylamino)-pyrimidin-4-yl]-pyridin-2-ylamino}-propyl)-methanesulfonamide] the IC50 (CDK9/cyclinT1) was under 5 µM, the IC50 (CDK1/cyclinB) was under 5 µM and the IC50 (CDK2/cyclinA) was under 5 µM. It also gave an IC50 [1] of under 5 µM, an IC50 (CDK4) of 15 to 50 µM and an IC50 (CDK5) of under 5 µM.
CC(=O)NCCCNc1cc(-c2nc(Nc3cccc(Cl)c3)ncc2C)ccn1 [Compound 32, N-(3-{4-[2-(3-Chloro-phenylamino)-5-methyl-pyrimidin-4-yl]-pyridin-2-ylamino}-propyl)-acetamide] gave an IC50 (CDK9/cyclinT1) of under 5 µM, an IC50 (CDK1/cyclinB) of under 5 µM and an IC50 (CDK2/cyclinA) of under 5 µM. The IC50 (CDK7/cyclinH/MAT1) was under 5 µM, the IC50 [1] was under 5 µM and the IC50 (CDK4) was 15 to 50 µM. The IC50 (CDK5) was under 5 µM.
In the case of NCCCNc1ncccc1-c1ccnc(Nc2cccc(Cl)c2)n1 [Compound 55, N-{3-[2-(3-Chloro-phenylamino)-pyrimidin-4-yl]-pyridin-2-yl}-propane-1,3-diamine], the IC50 (CDK9/cyclinT1) is reported as under 5 µM, the IC50 (CDK1/cyclinB) is reported as under 5 µM and the IC50 (CDK2/cyclinA) is reported as under 5 µM. For the same molecule, the IC50 (CDK7/cyclinH/MAT1) was under 5 µM, the IC50 [1] was under 5 µM and the IC50 (CDK4) was under 5 µM. For the same molecule, the IC50 (CDK5) was under 5 µM.
For Clc1cccc(Nc2nccc(-c3cccnc3NCCCn3ccnc3)n2)c1 [Compound 80, (3-Chloro-phenyl)-{4-[2-(3-imidazol-1-yl-propylamino)-pyridin-3-yl]-pyrimidin-2-yl}-amine], the IC50 (CDK9/cyclinT1) was under 5 µM, the IC50 (CDK1/cyclinB) was under 5 µM and the IC50 (CDK2/cyclinA) was under 5 µM. For the same molecule, the IC50 (CDK7/cyclinH/MAT1) was under 5 µM, the IC50 [1] was under 5 µM and the IC50 (CDK4) was 5 to 15 µM. The IC50 (CDK5) was under 5 µM.
With COc1cnccc1-c1ccnc(Nc2cccc(Cl)c2)n1 [Compound 45, (3-Chloro-phenyl)-[4-(3-methoxy-pyridin-4-yl)-pyrimidin-2-yl]-amine] the IC50 (CDK9/cyclinT1) was under 5 µM, the IC50 (CDK1/cyclinB) was under 5 µM and the IC50 (CDK2/cyclinA) was under 5 µM. It also gave an IC50 (CDK7/cyclinH/MAT1) of over 50 µM, an IC50 [1] of under 5 µM and an IC50 (CDK4) of 5 to 15 µM. For the same molecule, the IC50 (CDK5) was under 5 µM.
OCCCNc1ncccc1-c1ccnc(Nc2cccc(Cl)c2)n1 [Compound 74, 3-{3-[2-(3-Chloro-phenylamino)-pyrimidin-4-yl]-pyridin-2-ylamino}-propan-1-ol] gave an IC50 (CDK9/cyclinT1) of under 5 µM, an IC50 (CDK1/cyclinB) of under 5 µM and an IC50 (CDK2/cyclinA) of under 5 µM. The IC50 (CDK7/cyclinH/MAT1) was under 5 µM, the IC50 [1] was under 5 µM and the IC50 (CDK4) was 15 to 50 µM. The IC50 (CDK5) was under 5 µM.
CS(=O)(=O)c1cccc(Nc2nccc(-c3cccnc3NCCCN)n2)c1 [Compound 58, N-{3-[2-(3-Methanesulfonyl-phenylamino)-pyrimidin-4-yl]-pyridin-2-yl}-propane-1,3-diamine] showed an IC50 (CDK9/cyclinT1) of under 5 µM, an IC50 (CDK1/cyclinB) of under 5 µM and an IC50 (CDK2/cyclinA) of under 5 µM. It also gave an IC50 [1] of under 5 µM, an IC50 (CDK4) of under 5 µM and an IC50 (CDK5) of under 5 µM.
In the case of Cc1c(-c2ccnc(Nc3cccc(Cl)c3)n2)ccnc1NCCCn1ccnc1 [Compound 23, (3-Chloro-phenyl)-{4-[2-(3-imidazol-1-yl-propylamino)-3-methyl-pyridin-4-yl]-pyrimidin-2-yl}-amine], the IC50 (CDK9/cyclinT1) is reported as under 5 µM, the IC50 (CDK1/cyclinB) is reported as 5 to 15 µM and the IC50 (CDK2/cyclinA) is reported as under 5 µM. The IC50 [1] was 5 to 15 µM, the IC50 (CDK4) was 15 to 50 µM and the IC50 (CDK5) was under 5 µM.
Work on COc1ncccc1-c1ccnc(Nc2cccc(S(N)(=O)=O)c2)n1 [Compound 99, 3-[4-(2-Methoxy-pyridin-3-yl)-pyrimidin-2-ylamino]-benzenesulfonamide] yielded an IC50 (CDK9/cyclinT1) of under 5 µM, an IC50 (CDK1/cyclinB) of under 5 µM and an IC50 (CDK2/cyclinA) of under 5 µM. It also gave an IC50 (CDK7/cyclinH/MAT1) of 5 to 15 µM, an IC50 [1] of under 5 µM and an IC50 (CDK4) of under 5 µM. For the same molecule, the IC50 (CDK5) was under 5 µM.
NCCCCNc1ncccc1-c1ccnc(Nc2cccc(Cl)c2)n1 [Compound 84, N-{3-[2-(3-Chloro-phenylamino)-pyrimidin-4-yl]-pyridin-2-yl}-butane-1,4-diamine] showed an IC50 (CDK9/cyclinT1) of under 5 µM, an IC50 (CDK1/cyclinB) of under 5 µM and an IC50 (CDK2/cyclinA) of under 5 µM. The IC50 [1] was under 5 µM, the IC50 (CDK4) was under 5 µM and the IC50 (CDK5) was under 5 µM.
Work on CC(=O)NCCCNc1ncccc1-c1ccnc(Nc2cccc(Cl)c2)n1 [Compound 65, N-(3-{3-[2-(3-Chloro-phenylamino)-pyrimidin-4-yl]-pyridin-2-ylamino}-propyl)-acetamide] yielded an IC50 (CDK9/cyclinT1) of under 5 µM, an IC50 (CDK1/cyclinB) of under 5 µM and an IC50 (CDK2/cyclinA) of under 5 µM. For the same molecule, the IC50 [1] was under 5 µM, the IC50 (CDK4) was 15 to 50 µM and the IC50 (CDK5) was under 5 µM.
For NCCNc1ncccc1-c1ccnc(Nc2cccc(Cl)c2)n1 [Compound 52, N-{3-[2-(3-Chloro-phenylamino)-pyrimidin-4-yl]-pyridin-2-yl}-ethane-1,2-diamine], the IC50 (CDK9/cyclinT1) was under 5 µM, the IC50 (CDK1/cyclinB) was under 5 µM and the IC50 (CDK2/cyclinA) was under 5 µM. For the same molecule, the IC50 (CDK7/cyclinH/MAT1) was under 5 µM, the IC50 [1] was under 5 µM and the IC50 (CDK4) was under 5 µM. For the same molecule, the IC50 (CDK5) was under 5 µM.
CNCCNc1nccc(-c2ccnc(Nc3cccc(Cl)c3)n2)c1C [Compound 3, N-{4-[2-(3-Chloro-phenylamino)-pyrimidin-4-yl]-3-methyl-pyridin-2-yl}-N′-methyl-ethane-1,2-diamine] was tested, and the IC50 (CDK9/cyclinT1) was under 5 µM, the IC50 (CDK1/cyclinB) was under 5 µM and the IC50 (CDK2/cyclinA) was under 5 µM. The IC50 (CDK7/cyclinH/MAT1) was under 5 µM, the IC50 [1] was under 5 µM and the IC50 (CDK4) was under 5 µM. For the same molecule, the IC50 (CDK5) was under 5 µM.
For CC(=O)NCCCNc1nccc(-c2ccnc(Nc3cccc(Cl)c3)n2)c1C [Compound 6, N-(3-{4-[2-(3-Chloro-phenylamino)-pyrimidin-4-yl]-3-methyl-pyridin-2-ylamino}-propyl)-acetamide], the IC50 (CDK9/cyclinT1) was under 5 µM, the IC50 (CDK1/cyclinB) was 5 to 15 µM and the IC50 (CDK2/cyclinA) was under 5 µM. It also gave an IC50 (CDK7/cyclinH/MAT1) of under 5 µM, an IC50 [1] of 5 to 15 µM and an IC50 (CDK4) of 5 to 15 µM.
COc1ncccc1-c1ccnc(Nc2cccc(S(C)(=O)=O)c2)n1 [Compound 93, (3-Methanesulfonyl-phenyl)-[4-(2-methoxy-pyridin-3-yl)-pyrimidin-2-yl]-amine] was tested, and the IC50 (CDK9/cyclinT1) was under 5 µM, the IC50 (CDK1/cyclinB) was under 5 µM and the IC50 (CDK2/cyclinA) was under 5 µM. It also gave an IC50 [1] of under 5 µM, an IC50 (CDK4) of 15 to 50 µM and an IC50 (CDK5) of under 5 µM.
